Measurements as given in patent US20110044938A1 (NYCOMED GMBH, priority 2006, published 2011).

How the values were obtained:
[1] = test system: subclones of RKO colon adenocarcinoma cells (RKOp27 or RKOp21) arrested by Ponasterone A; assay: Alamar Blue cell viability assay, cell cycle specific mode of action: cells arrested by ectopic p27Kip1 induced by Ponasterone A versus proliferating cells; assay type: cell-based; conditions: Homo sapiens, RKO p27 induced (arrested) cells, 10 μM Ponasterone A, 72 hours, value = class bound given in Table A, read-out: −logIC50 RKO p27 induced (arrested) (converted)
Method in brief: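 RKOp27 or RKOp21 cells, 15000/well in DMEM/10% FCS, either arrested by p27Kip1 induced with 10 μM Ponasterone A or proliferating without inducer; compound added after 24 h, 72 h at 37° C. Alamar Blue fluorescence (544/590 nm), viability as % of untreated cells; −log IC50 reported.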

[2] = test system: RKO (RKOp27) human colon adenocarcinoma cells; assay: Alamar Blue cell viability assay, anti-proliferative/cytotoxic activity on proliferating RKO subclones; assay type: cell-based; conditions: RKOp27, 72 h, RKO p27 uninduced (proliferating) cells, value = class bound given in Table A, read-out: −logIC50 RKO p27 uninduced (proliferating) (converted)
Method in brief: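 RKOp27 subclones (5000 cells/well) were exposed 24 h after seeding to semi-log compound dilutions in DMEM with 10% FCS, in quadruplicate, for 72 h at 37 °C. Viability was read by Alamar Blue fluorescence (544/590 nm) relative to untreated cells (1% DMSO medium). IC50 came from concentration-effect curves and is reported as −log IC50 [mol/l].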

Compound | IC50 [1] [µM] | IC50 [2] [µM]
N#Cc1c(NC(=O)/C=C/c2cccnc2)sc2c1CCC(OC(=O)NC1CCC1)C2 (stereo not shown) [Example 139, Cyclobutyl-carbamic acid 3-cyano-2-((E)-3-pyridin-3-yl-allanoylamino)-4,5,6,7-tetrahydro-benzo[b]thiophen-6-yl ester] | ≥ 100 | ≤ 0.501
Cc1nc(CNC(=O)OC2CCc3c(sc(NC(=O)CC(C)c4ccccc4)c3C#N)C2)cs1 (stereo not shown) [Example 351, (2-Methyl-thiazol-4-ylmethyl)-carbamic acid 3-cyano-2-(3-phenyl-butanoylamino)-4,5,6,7-tetrahydro-benzo[b] thiophen-6-yl ester] | ≥ 100 | ≤ 0.501
CCOc1ccccc1CCC(=O)Nc1sc2c(c1C#N)CCC(COC(=O)NCc1cnoc1C)C2 (stereo not shown) [Example 212, (5-Methyl-isoxazol-4-ylmethyl)-carbamic acid 3-cyano-2-[3-(2-ethoxy-phenyl)-propanoylamino]-4,5,6,7-tetrahydro-benzo[b]thiophen-6-ylmethyl ester] | ≥ 100 | ≤ 0.501
CCNC(=O)OC1CCc2c(sc(NC(=O)/C=C/c3ccccc3OCC)c2C#N)C1 (stereo not shown) [Example 5, Ethyl-carbamic acid 3-cyano-2-[(E)-3-(2-ethoxy-phenyl)-allanoylamino]-4,5,6,7-tetrahydro-benzo[b]thiophen-6-yl ester] | ≥ 10 | ≤ 0.501
N#Cc1c(NC(=O)/C=C/c2cccnc2)sc2c1CCC(COC(=O)NCC1CCCO1)C2 (stereo not shown) [Example 63, (Tetrahydro-furan-2-ylmethyl)-carbamic acid 3-cyano-2-((E)-3-pyridin-3-yl-allanoylamino)-4,5,6,7-tetrahydro-benzo[b]thiophen-6-ylmethyl ester] | ≥ 100 | 0.501 to 2
Cc1oncc1CNC(=O)OC1CCc2c(sc(NC(=O)CC(C)c3cccnc3)c2C#N)C1 (stereo not shown) [Example 354, (5-Methyl-isoxazol-4-ylmethyl)-carbamic acid 3-cyano-2-(3-pyridin-3-yl-butanoylamino)-4,5,6,7-tetrahydro-benzo[b] thiophen-6-yl ester] | ≥ 100 | 0.501 to 2
N#Cc1c(NC(=O)/C=C/c2cccnc2)sc2c1CC[C@H](COC(=O)N1CCC[C@@H](O)C1)C2 [Example 87b, (R)-3-Hydroxy-piperidine-1-carboxylic acid (S)-3-cyano-2-((E)-3-pyridin-3-yl-allanoylamino)-4,5,6,7-tetrahydro-benzo[b]thiophen-6-ylmethyl ester] | ≥ 100 | ≤ 0.501
CC(CC(=O)Nc1sc2c(c1C#N)CCC(COC(=O)NCc1cccn1C)C2)c1cccnc1 (stereo not shown) [Example 285, (1-Methyl-1H-pyrrol-2-ylmethyl)-carbamic acid 3-cyano-2-(3-pyridin-3-yl-butanoylamino)-4,5,6,7-tetrahydro-benzo[b]thiophen-6-ylmethyl ester] | ≥ 50.1 | 0.501 to 2
Cn1nccc1CNC(=O)OCC1CCc2c(sc(NC(=O)/C=C/c3cccnc3)c2C#N)C1 (stereo not shown) [Example 46, (2-Methyl-2H-pyrazol-3-ylmethyl)-carbamic acid 3-cyano-2-((E)-3-pyridin-3-yl-allanoylamino)-4,5,6,7-tetrahydro-benzo[b]thiophen-6-ylmethyl ester] | ≥ 100 | ≤ 0.501
Cn1cccc1CNC(=O)OCC1CCc2c(sc(NC(=O)/C=C/c3cccnc3)c2C#N)C1 (stereo not shown) [Example 51, (1-Methyl-1H-pyrrol-2-ylmethyl)-carbamic acid 3-cyano-2-((E)-3-pyridin-3-yl-allanoylamino)-4,5,6,7-tetrahydro-benzo[b]thiophen-6-ylmethyl ester] | ≥ 100 | 0.501 to 2
COc1cccc(CCC(=O)Nc2sc3c(c2C#N)CCC(COC(=O)NCc2cnn(C)c2)C3)c1 (stereo not shown) [Example 239, (1-Methyl-1H-pyrazol-4-ylmethyl)-carbamic acid 3-cyano-2-[3-(3-methoxy-phenyl)-propanoylamino]-4,5,6,7-tetrahydro-benzo[b]thiophen-6-ylmethyl ester] | ≥ 100 | ≤ 0.501
N#Cc1c(NC(=O)/C=C/c2cccnc2)sc2c1CCC(COC(=O)N1CCC(O)C1)C2 (stereo not shown) [Example 75, 3-Hydroxy-pyrrolidine-1-carboxylic acid 3-cyano-2-((E)-3-pyridin-3-yl-allanoylamino)-4,5,6,7-tetrahydro-benzo[b]thiophen-6-ylmethyl ester] | ≥ 100 | ≤ 0.501
CC(CC(=O)Nc1sc2c(c1C#N)CCC(OC(=O)NCC1CCCCO1)C2)c1ccccc1 (stereo not shown) [Example 296, (Tetrahydropyran-2-ylmethyl)-carbamic acid 3-cyano-2-(3-phenyl-butanoylamino)-4,5,6,7-tetrahydro-benzo[b]thiophen-6-yl ester] | ≥ 50.1 | 0.501 to 2
N#Cc1c(NC(=O)/C=C/c2cccnc2)sc2c1CCC(OC(=O)N1CCOCC1)C2 (stereo not shown) [Example 61, Morpholine-4-carboxylic acid 3-cyano-2-((E)-3-pyridin-3-yl-allanoylamino)-4,5,6,7-tetrahydro-benzo[b]thiophen-6-yl ester] | ≥ 100 | ≤ 0.501
N#Cc1c(NC(=O)/C=C/c2cccnc2)sc2c1CCC(OC(=O)NC1CCOCC1)C2 (stereo not shown) [Example 26, (Tetrahydro-pyran-4-yl)-carbamic acid 3-cyano-2-((E)-3-pyridin-3-yl-allanoylamino)-4,5,6,7-tetrahydro-benzo[b]thiophen-6-yl ester] | ≥ 100 | 0.501 to 2
N#Cc1c(NC(=O)/C=C/c2cccnc2)sc2c1CC[C@@H](COC(=O)N1CCC(O)CC1)C2 [Example 114b, 4-Hydroxy-piperidine-1-carboxylic acid (R)-3-cyano-2-((E)-3-pyridin-3-yl-allanoylamino)-4,5,6,7-tetrahydro-benzo[b]thiophen-6-ylmethyl ester] | ≥ 100 | ≤ 0.501
CC(CC(=O)Nc1sc2c(c1C#N)CCC(COC(=O)NCCn1ccnc1)C2)c1ccccc1 (stereo not shown) [Example 310, (2-Imidazol-1-yl-ethyl)-carbamic acid 3-cyano-2-(3-phenyl-butanoyl-amino)-4,5,6,7-tetrahydro-benzo[b]thiophen-6-ylmethyl ester] | ≥ 10 | 0.501 to 2
CC(CC(=O)Nc1sc2c(c1C#N)CCC(COC(=O)N1CCCC1)C2)c1cccnc1 (stereo not shown) [Example 357, Pyrrolidine-1-carboxylic acid 3-cyano-2-(3-pyridin-3-yl-butanoylamino)-4,5,6,7-tetrahydro-benzo[b]thiophen-6-ylmethyl ester] | ≥ 100 | ≤ 0.501
COc1cccc(C(C)CC(=O)Nc2sc3c(c2C#N)CCC(OC(=O)NCCn2ccnc2)C3)c1 (stereo not shown) [Example 280, (2-Imidazol-1-yl-ethyl)-carbamic acid 3-cyano-2-[3-(3-methoxy-phenyl)-butanoylamino]-4,5,6,7-tetrahydro-benzo[b] thiophen-6-yl ester] | ≥ 50.1 | 0.501 to 2
N#Cc1c(NC(=O)/C=C/c2cccnc2)sc2c1CCC(COC(=O)NC1CCC1)C2 (stereo not shown) [Example 98, Cyclobutyl-carbamic acid 3-cyano-2-((E)-3-pyridin-3-yl-allanoylamino)-4,5,6,7-tetrahydro-benzo[b]thiophen-6-ylmethyl ester] | ≥ 100 | ≤ 0.501
COc1cccc(C(C)CC(=O)Nc2sc3c(c2C#N)CCC(OC(=O)NC2CCOCC2)C3)c1 (stereo not shown) [Example 271, (Tetrahydro-pyran-4-yl)-carbamic acid 3-cyano-2-[3-(3-methoxy-phenyl)-butanoylamino]-4,5,6,7-tetrahydro-benzo[b] thiophen-6-yl ester] | ≥ 100 | 0.501 to 2
CCOc1ccccc1CCC(=O)Nc1sc2c(c1C#N)CCC(OC(=O)N1CCCC1)C2 (stereo not shown) [Example 208, Pyrrolidine-1-carboxylic acid 3-cyano-2-[3-(2-ethoxy-phenyl)-propanoylamino]-4,5,6,7-tetrahydro-benzo[b]thiophen-6-yl ester] | ≥ 100 | ≤ 0.501
CCOc1ccccc1/C=C/C(=O)Nc1sc2c(c1C#N)CCC(COC(=O)NCCO)C2 (stereo not shown) [Example 28, (2-Hydroxy-ethyl)-carbamic acid 3-cyano-2-[(E)-3-(2-ethoxy-phenyl)-allanoylamino]-4,5,6,7-tetrahydro-benzo[b]thiophen-6-ylmethyl ester] | ≥ 100 | 0.501 to 2
COc1cccc(CCC(=O)Nc2sc3c(c2C#N)CCC(OC(=O)NC2CC2)C3)c1 (stereo not shown) [Example 249, Cyclopropyl-carbamic acid 3-cyano-2-[3-(3-methoxy-phenyl)-propanoylamino]-4,5,6,7-tetrahydro-benzo[b]thiophen-6-yl ester] | ≥ 100 | ≤ 0.501
COc1cccc(C(C)CC(=O)Nc2sc3c(c2C#N)CCC(OC(=O)NCc2cc(C)no2)C3)c1 (stereo not shown) [Example 362, (3-Methyl-isoxazol-5-ylmethyl)-carbamic acid 3-cyano-2-[3-(3-methoxy-phenyl)-butanoyl-amino]-4,5,6,7-tetrahydro-benzo[b]thiophen-6-yl ester] | ≥ 100 | 0.501 to 2
CCOc1ccccc1CCC(=O)Nc1sc2c(c1C#N)CCC(OC(=O)NCc1conc1C)C2 (stereo not shown) [Example 205, (3-Methyl-isoxazol-4-ylmethyl)-carbamic acid 3-cyano-2-[3-(2-ethoxy-phenyl)-propanoylamino]-4,5,6,7-tetrahydro-benzo[b]thiophen-6-yl ester] | ≥ 100 | ≤ 0.501
